Reference: patent US20200046703A1, “COMPOSITIONS AND METHODS FOR TREATMENT OF THE SIDE-EFFECTS ASSOCIATED WITH ADMINISTRATION OF THERAPEUTIC AGENTS” (ASYMMETRIC THERAPEUTICS, LLC, priority 2018, published 2020)
Converted amounts (≈) assume the structure as drawn.

Tests used:
proliferating HGEP cells = assay: Proliferating HGEP cell viability with/without 5-FU; type: cell-based, human; details: for relative cell viability (AVG): 120 hours
Protocol: In one set of experiments, the results of which are shown in Table 1, proliferating HGEP cells, commonly used to assess oral mucosal toxicity, were exposed to the clinically-relevant dose of 10 μM of 5-FU and different concentrations of oxypurinol, either alone or with different concentrations of adenine or uracil, using standard tissue culture methods and incubated at 37° C. Oxypurinol concentrations of 0.03 mM, 0.1 mM, and 0.3 mM were tested. Adenine and uracil concentrations of 0.1 mM and 0.3 mM were tested. The relative viability of the cells was determined after 120 hours.

confluent HPEK cells = assay: Confluent HPEK cell viability with/without 5-FU; type: cell-based, human; details: for relative cell viability (AVG): 120 hours; for Relative Protection against 5-FU toxicity / Relative Growth in the presence of 5-FU: HPEK confluent cells; for Relative Protection against 5-FU toxicity: fraction of viability loss prevented; for Relative Growth in the presence of 5-FU: viability with 5-FU divided by viability without 5-FU
Protocol: Oxypurinol and allopurinol concentrations of 0.3 mM, 1.0 mM, and 3.0 mM, which are ten times higher than those used in the first set of experiments, were tested. An adenine concentration of 0.3 mM, which was the higher concentration used in the first set of experiments, was tested. The relative viability of the cells was determined after 120 hours.

proliferating HPEK cells = assay: Proliferating HPEK cell viability with/without 5-FU; type: cell-based, human; details: for relative cell viability (AVG): 120 hours; for Relative Protection against 5-FU toxicity / Relative Growth in the presence of 5-FU: HPEK proliferating cells; for Relative Protection against 5-FU toxicity: fraction of viability loss prevented; for Relative Growth in the presence of 5-FU: viability with 5-FU divided by viability without 5-FU
Protocol: In another set of experiments, the results of which are shown in Table 2, proliferating HPEK cells, commonly used to assess skin tissue toxicity, were exposed to the clinically-relevant dose of 10 μM of 5-FU and different concentrations of oxypurinol, either alone or with different concentrations of adenine or uracil, using standard tissue culture methods and incubated at 37° C. Oxypurinol concentrations of 0.03 mM, 0.1 mM, and 0.3 mM were tested. Adenine and uracil concentrations of 0.1 mM and 0.3 mM were tested. The relative viability of the cells was determined after 120 hours.

Solubility of oxypurinol = type: physicochemical; details: in vitro; in the protective formulation; read-out: maximum in vitro solubility / upper limit of solubility
confluent NHEK cells = assay: Confluent NHEK cell viability with/without 5-FU; type: cell-based, human; details: for relative cell viability (AVG): 120 hours; for Relative Protection against 5-FU toxicity: fraction of viability loss prevented
Protocol: In yet another set of experiments, the results of which are shown in Table 4, confluent NHEK cells were exposed to the clinically-relevant dose of 10 μM of 5-FU and different concentrations of sodium hydroxide, oxypurinol, or allopurinol using standard tissue culture methods and incubated at 37° C. Sodium hydroxide concentrations of 1 mM, 2 mM, 3 mM, and 4 mM were tested. Oxypurinol and allopurinol concentrations of 0.1 mM, 0.3 mM, 1.0 mM, and 3.0 mM were tested, both in the presence and in the absence of 10 μM of 5-FU. The relative viability of the cells was determined after 120 hours. The sodium hydroxide trials were only performed to serve as a control.

marrow cells = details: about a 30-fold excess; in patients; cited from earlier work
[1] = concentrations of 0.1 mM and 0.3 mM
[2] = 0.3 mM, with 5-FU 10 μM, listed as oxypurinol
[3] = 1.0 mM, with 5-FU 10 μM, listed as oxypurinol
[4] = 3.0 mM, with 5-FU 10 μM, listed as oxypurinol

Structure (SMILES): Nc1ncnc2nc[nH]c12 [Adenine, adenine, reference compound]
- relative cell viability (AVG) (proliferating HGEP cells; 0.1 mM, with 5-FU 10 μM): 0.7549
- relative cell viability (AVG) (proliferating HGEP cells; 0.3 mM, with 5-FU 10 μM): 0.6389
- relative cell viability (AVG) (confluent HPEK cells; 0.3 mM, no 5-FU): 1.3784
- relative cell viability (AVG) (confluent HPEK cells; 0.3 mM, with 5-FU 10 μM): 0.7456
- relative cell viability (AVG) (proliferating HPEK cells; 0.1 mM, with 5-FU 10 μM): 0.6214
- relative cell viability (AVG) (proliferating HPEK cells; 0.3 mM, with 5-FU 10 μM): 0.5985

Structure (SMILES): O=c1cc[nH]c(=O)[nH]1 [Uracil, uracil, reference compound]
- relative cell viability (AVG) (proliferating HGEP cells; 0.1 mM, with 5-FU 10 μM): 0.6060
- relative cell viability (AVG) (proliferating HGEP cells; 0.3 mM, with 5-FU 10 μM): 0.5182
- relative cell viability (AVG) (confluent HPEK cells; 0.3 mM, no 5-FU): 1.3781
- relative cell viability (AVG) (confluent HPEK cells; 0.3 mM, with 5-FU 10 μM): 0.6482
- relative cell viability (AVG) (proliferating HPEK cells; 0.1 mM, with 5-FU 10 μM): 0.6479
- relative cell viability (AVG) (proliferating HPEK cells; 0.3 mM, with 5-FU 10 μM): 0.6350

Structure (SMILES): O=c1nc2[nH][nH]cc-2c(=O)[nH]1 [Oxypurinol, oxypurinol]
- relative cell viability (AVG) (proliferating HGEP cells; 0.03 mM, no 5-FU): 0.8792
- relative cell viability (AVG) (proliferating HGEP cells; 0.03 mM, with 5-FU 10 μM): 0.6441
- relative cell viability (AVG) (proliferating HGEP cells; 0.1 mM, no 5-FU): 0.7134
- relative cell viability (AVG) (proliferating HGEP cells; 0.1 mM, with 5-FU 10 μM): 0.7540
- relative cell viability (AVG) (proliferating HGEP cells; 0.3 mM, no 5-FU): 0.6367
- relative cell viability (AVG) (proliferating HGEP cells; 0.3 mM, with 5-FU 10 μM): 0.8925
- effect on cell viability in the absence of 5-FU (proliferating HGEP cells; 0.03 to 0.3 mM): negative effect
- effect on cell viability in the presence of 5-FU (proliferating HGEP cells; [1]): protective effect
- solubility (Solubility of oxypurinol): ~3000 µM (≈ 456 µg/mL)
- effect on cell viability in the presence of 5-FU (confluent NHEK cells; 0.1 mM to 3.0 mM): protective effect
- relative cell viability (AVG) (confluent NHEK cells; 0.1 mM, no 5-FU): 0.8884
- relative cell viability (AVG) (confluent NHEK cells; 0.1 mM, with 5-FU 10 μM): 0.5818
- relative cell viability (AVG) (confluent NHEK cells; 0.1 mM, with 5-FU 10 μM, listed as oxypurinol): 0.58
- relative cell viability (AVG) (confluent NHEK cells; 0.3 mM, no 5-FU): 0.9059
- relative cell viability (AVG) (confluent NHEK cells; 0.3 mM, with 5-FU 10 μM): 0.5881
- relative cell viability (AVG) (confluent NHEK cells; [2]): 0.59
- relative cell viability (AVG) (confluent NHEK cells; 1.0 mM, no 5-FU): 0.9580
- relative cell viability (AVG) (confluent NHEK cells; 1.0 mM, with 5-FU 10 μM): 0.5965
- relative cell viability (AVG) (confluent NHEK cells; [3]): 0.60
- Relative Growth in the presence of 5-FU (confluent NHEK cells; 3.0 mM, NHEK, FIG. 2): over 73%
- relative cell viability (AVG) (confluent NHEK cells; 3.0 mM, no 5-FU): 0.9784
- relative cell viability (AVG) (confluent NHEK cells; 3.0 mM, with 5-FU 10 μM): 0.7165
- relative cell viability (AVG) (confluent NHEK cells; [4]): 0.72
- protection from 5-FU toxicity compared with allopurinol (confluent NHEK cells; NHEK cells, FIG. 2, across the range of tested concentrations): significantly better
- Relative Protection against 5-FU toxicity (confluent NHEK cells; NHEK, 0.1 mM): 0.2834
- Relative Growth in the presence of 5-FU (confluent NHEK cells; NHEK, 0.1 mM, viability with 5-FU divided by viability without 5-FU): 0.6549
- Relative Protection against 5-FU toxicity (confluent NHEK cells; NHEK, 0.3 mM): 0.2941
- Relative Growth in the presence of 5-FU (confluent NHEK cells; NHEK, 0.3 mM, viability with 5-FU divided by viability without 5-FU): 0.6492
- Relative Protection against 5-FU toxicity (confluent NHEK cells; NHEK, 1.0 mM): 0.3085
- Relative Growth in the presence of 5-FU (confluent NHEK cells; NHEK, 1.0 mM, viability with 5-FU divided by viability without 5-FU): 0.6226
- Relative Protection against 5-FU toxicity (confluent NHEK cells; NHEK, 3.0 mM): 0.5142
- Relative Growth in the presence of 5-FU (confluent NHEK cells; NHEK, 3.0 mM, viability with 5-FU divided by viability without 5-FU): 0.7323
- oxypurinol toxicity (confluent NHEK cells; NHEK, up to about 3 mM): no evidence of oxypurinol toxicity
- effect on cell viability in the absence of 5-FU (confluent NHEK cells; range of 0.1 mM to 3.0 mM): small negative effect
- protection of marrow cells from 5-FU toxicity (marrow cells): completely protect marrow cells from 5-FU toxicity
- relative cell viability (AVG) (confluent HPEK cells; 0.3 mM, no 5-FU): 1.0183
- relative cell viability (AVG) (confluent HPEK cells; 0.3 mM, with 5-FU 10 μM): 0.7226
- relative cell viability (AVG) (confluent HPEK cells; [2]): 0.72
- relative cell viability (AVG) (confluent HPEK cells; 1.0 mM, no 5-FU): 1.0706
- relative cell viability (AVG) (confluent HPEK cells; 1.0 mM, no 5-FU, listed as oxypurinol): 1.07
- relative cell viability (AVG) (confluent HPEK cells; 1.0 mM, with 5-FU 10 μM): 0.7509
- relative cell viability (AVG) (confluent HPEK cells; [3]): 0.75
- relative cell viability (AVG) (confluent HPEK cells; 3.0 mM, no 5-FU): 0.8351
- relative cell viability (AVG) (confluent HPEK cells; 3.0 mM, no 5-FU, listed as oxypurinol): 0.835
- relative cell viability (AVG) (confluent HPEK cells; 3.0 mM, with 5-FU 10 μM): 0.8147
- relative cell viability (AVG) (confluent HPEK cells; [4]): 0.81
- protection from 5-FU toxicity compared with allopurinol (confluent HPEK cells; HPEK cells, FIG. 1, across the range of tested concentrations): significantly better
- Relative Protection against 5-FU toxicity (confluent HPEK cells; 0.3 mM): 0.2249
- Relative Growth in the presence of 5-FU (confluent HPEK cells; 0.3 mM): 0.7096
- Relative Protection against 5-FU toxicity (confluent HPEK cells; 1.0 mM): 0.3039
- Relative Growth in the presence of 5-FU (confluent HPEK cells; 1.0 mM): 0.7013
- Relative Protection against 5-FU toxicity (confluent HPEK cells; 3.0 mM): 0.4822
- Relative Growth in the presence of 5-FU (confluent HPEK cells; 3.0 mM): 0.9755
- oxypurinol toxicity (confluent HPEK cells; HPEK, up to about 3 mM): no evidence of oxypurinol toxicity
- effect on cell viability in the presence of 5-FU (confluent HPEK cells; concentration range of 0.3 mM to 3.0 mM): protective effect
- preservation of growth, with versus without 5-FU (confluent HPEK cells; oxypurinol at 3 mM, 5-FU 10 μM): 97.5%
- relative cell viability (AVG) (proliferating HPEK cells; 0.03 mM, no 5-FU): 1.0763
- relative cell viability (AVG) (proliferating HPEK cells; 0.03 mM, with 5-FU 10 μM): 0.6903
- relative cell viability (AVG) (proliferating HPEK cells; 0.1 mM, no 5-FU): 0.7961
- relative cell viability (AVG) (proliferating HPEK cells; 0.1 mM, with 5-FU 10 μM): 0.7961
- relative cell viability (AVG) (proliferating HPEK cells; 0.3 mM, no 5-FU): 1.0201
- relative cell viability (AVG) (proliferating HPEK cells; 0.3 mM, with 5-FU 10 μM): 0.8635
- Relative Protection against 5-FU toxicity (proliferating HPEK cells; 0.03 mM): 0.1133
- Relative Growth in the presence of 5-FU (proliferating HPEK cells; 0.03 mM): 0.6414
- Relative Protection against 5-FU toxicity (proliferating HPEK cells; 0.1 mM): 0.4163
- Relative Growth in the presence of 5-FU (proliferating HPEK cells; 0.1 mM): 1.0000
- Relative Protection against 5-FU toxicity (proliferating HPEK cells; 0.3 mM): 0.6092
- Relative Growth in the presence of 5-FU (proliferating HPEK cells; 0.3 mM): 0.8465
- effect on cell viability in the presence of 5-FU (proliferating HPEK cells; [1]): protective effect
- effect on cell viability in the absence of 5-FU (proliferating HPEK cells; range of 0.03 mM to 0.3 mM): minimal effect
